Earlier results as cited in patent US8378072B2, “Methods for designing and synthesizing directed sequence polymer compositions via the directed expansion of epitope permeability” (Declion Pharmaceuticals, Inc., priority 2006, dated 2013).

Columns and labels:
[1] = limited human trials; Kim et al. Clinical Immunology 2002
[2] = Raz et al., Lancet 2001
[3] = compared with COP-1
[4] = YFAK input ratio of 1:1:1:1 compared to input ratio of 1:1:10:6; Rasmussen et al.

Substance: AKPVVHLFANIVTPRTP [altered peptide ligand (APL) made from MBP83-99, placed into limited human trials]
- clinical efficacy by evaluation using MRI [1]: clinically ineffective

Substance: VLGGGVALLRVIPALDSLTPANED [p277]
- activity in the context of Type I diabetes [2]: apparent activity

Substance: YFAK: random sequence polymer consisting of the amino acids Y, F, A, and K
- efficacy in EAE [3]: better efficacy
- eliciting a recall response [4]: not effective
